Our source for the IC50 values is US20250042853A1, “BICYCLIC COMPOUND AND APPLICATION THEREOF” (BETTA PHARMACEUTICALS CO., LTD, priority 2021, published 2025).

A value given as a limit tells only on which side of the number the result lay.

One test has as its system 786-O-HIF2α-Luc cells. The experiment in a line: Luciferase assay (HIF2α reporter gene cells). Particulars: 18-20 h, luminescence. In kind it is cell-based. The protocol:
The luciferase LUC gene was stably transfected into 786-0 cells (purchased from ATCC) using Lipofectamine 3000 transfection reagent (purchased from Invitrogen) to construct HIF2α reporter gene cells (786-O-HIF2α-Luc cells). The experiment was performed when 786-O-HIF2α-Luc cells were in the logarithmic growth phase, the culture medium (RPMI MEDIUM 1640, purchased from Invitrogen) was discarded, and the cells were rinsed three times with PBS; trypsin (TrypLE, purchased from Invitrogen) was added to digest the cells, and the digestion was terminated with culture medium, 10% fetal bovine serum, 1% penicillin, and streptomycin. The cells were collected by centrifugation, and washed twice with PBS to remove phenol red in the culture medium. The cells were resuspended to an appropriate concentration. The cell density and viability were measured, to ensure that the cells with a viability of at least 90% were used in the assay.
The compounds at a gradient concentration were transferred into 384 wells using Echo550 (non-contact acoustic pipetting system, purchased from Labcyte), 25 nL/well. The cells were seeded into 384-well plates, with 4500 cells/well and 25 μL of culture medium, and the final concentrations of the compounds were 10000 nM, 3333 nM, 1111 nM, 370 nM, 123 nM, 41.1 nM, 13.7 nM, 4.6 nM, 1.5 nM, and 0.5 nM, respectively. The cells were cultured for 18-20 h under conditions of 37° C. and 5% CO2. Steady-Glo™ luciferase assay system (purchased from Promega) was added to a 384-well plate, 25 μL/well. Luminescence values were detected using Envision. The inhibition rate % was calculated based on the RLU (Record Luminescence) signal value of each well, and then the IC50 values of the corresponding compounds were calculated by fitting using Graphpad 8.0.
The IC50 data of the exemplary examples are provided in Table 2, where A stands for IC50≤0.1 μM; B stands for 0.1 μM<IC50≤0.5 μM; and C stands for IC50>0.5 μM.
(Reporter assays use an easily measured gene product as a stand-in for the process of interest.)

The next test has as its system VEGFA. As to the kind of experiment: VEGFA ELISA assay (IC50). The class given is cell-based. Particulars: Homo sapiens, 786-0; 786-O cells, 24 h, VEGFA in culture supernatant by ELISA. The protocol: 786-O cells in the logarithmic growth phase were inoculated into a 96-well plate at a cell concentration of 65,000 cells per ml of culture liquid, 180 μL per well. The compounds were diluted to the corresponding concentrations, and 20 μL of compound solutions of various concentrations were added to the corresponding cell wells, so that the final concentrations of the compounds were 1.5 nM, 4.6 nM, 13.7 nM, 41.2 nM, 123.5 nM, 370.4 nM, 1111.1 nM, 3333.3 nM, and 10000 nM, respectively. After culturing for 24 h, the cell culture supernatant was collected and the VEGFA concentration was determined using an ELISA kit (purchased from Abeam). Finally, the reaction was terminated and the absorbance value of each well was measured at a wavelength of 450 nm using an ELISA reader. The IC50 values were calculated by GraphPadPrism. CellTiter-Glo reagent was used to measure cell viability.
Background: ELISA stands for enzyme-linked immunosorbent assay.

What is called IC50 is the concentration that inhibits the measured activity by half. A higher IC50 goes with weaker potency. On to `N#Cc1cc(-n2cc(S(=O)(=O)CF)c3c2CCC(F)(F)[C@H]3O)ccc1F` [Example 11, (S)-5-(5,5-difluoro-3-((fluoromethyl)sulfonyl)-4-hydroxyl-4,5,6,7-tetrahydro-1H-indol-1-yl)-2-fluorobenzonitrile], for which the IC50 is 100 to 500 nM with 786-O-HIF2α-Luc cells (class symbols) and 27 nM with VEGFA.

In the case of `O=S(=O)(c1cn(-c2ccc(F)c(Cl)c2)c2c1[C@H](O)C(F)(F)CC2)C(F)(F)F` [Example 33, (S)-1-(3-chloro-4-fluorophenyl)-5,5-difluoro-3-((trifluoromethyl)sulfonyl)-4,5,6,7-tetrahydro-1H-indol-4-ol], the IC50 with 786-O-HIF2α-Luc cells is 52 nM; in the test with VEGFA it was 41 nM.

`O=S(=O)(c1cn(-c2ccc(F)c(C(F)F)c2)c2c1[C@H](O)C(F)(F)CC2)C(F)(F)F` [Example 12, (S)-1-(3-(difluoromethyl)-4-fluorophenyl)-5,5-difluoro-3-((trifluoromethyl)sulfonyl)-4,5,6,7-tetrahydro-1H-indol-4-ol]: the IC50 in the test with 786-O-HIF2α-Luc cells (class symbols) was ≤ 100 nM; with VEGFA it was 10 nM.

Regarding `N#Cc1ccc(-n2cc(S(=O)(=O)C(F)(F)F)c3c2CCC(F)(F)[C@H]3O)cc1C(F)F` [Example 35, (S)-4-(5,5-difluoro-4-hydroxyl-3-((trifluoromethyl)sulfonyl)-4,5,6,7-tetrahydro-1H-indol-1-yl)-2-(difluoromethyl)benzonitrile], the concentration for half-maximal inhibition (IC50) in the test with 786-O-HIF2α-Luc cells was 10 nM; in the test with VEGFA, 18 nM.

`O=S(=O)(CF)c1cn(-c2ccc(F)c(C(F)F)c2)c2c1[C@H](O)C(F)(F)CC2` [Example 14, (S)-1-(3-(difluoromethyl)-4-fluorophenyl)-5,5-difluoro-3-((fluoromethyl)sulfonyl)-4,5,6,7-tetrahydro-1H-indol-4-ol]: the concentration for half-maximal inhibition (IC50) in the test on 786-O-HIF2α-Luc cells turned out to be 54 nM; in the test with VEGFA, 40 nM.
